According to patent US20180071280A1, “MODULATORS OF CELL DEATH PROCESSES” (URIFER LTD., priority 2015, published 2018):
pEC50: −log10 of the molar value. Entries after “also recorded” stand apart in the source; their conditions may differ. Structures can show the parent of a compound that is named as a salt.

Assays:
[1] = biological target: DAPK1 (Death-associated protein kinase 1) (Homo sapiens, UniProt P53355); test: Kinase panel assay, DAPK1; assay type: biochemical; details: above threshold
Chain of DAPK1 (Death-associated protein kinase 1) (P53355 whole entry): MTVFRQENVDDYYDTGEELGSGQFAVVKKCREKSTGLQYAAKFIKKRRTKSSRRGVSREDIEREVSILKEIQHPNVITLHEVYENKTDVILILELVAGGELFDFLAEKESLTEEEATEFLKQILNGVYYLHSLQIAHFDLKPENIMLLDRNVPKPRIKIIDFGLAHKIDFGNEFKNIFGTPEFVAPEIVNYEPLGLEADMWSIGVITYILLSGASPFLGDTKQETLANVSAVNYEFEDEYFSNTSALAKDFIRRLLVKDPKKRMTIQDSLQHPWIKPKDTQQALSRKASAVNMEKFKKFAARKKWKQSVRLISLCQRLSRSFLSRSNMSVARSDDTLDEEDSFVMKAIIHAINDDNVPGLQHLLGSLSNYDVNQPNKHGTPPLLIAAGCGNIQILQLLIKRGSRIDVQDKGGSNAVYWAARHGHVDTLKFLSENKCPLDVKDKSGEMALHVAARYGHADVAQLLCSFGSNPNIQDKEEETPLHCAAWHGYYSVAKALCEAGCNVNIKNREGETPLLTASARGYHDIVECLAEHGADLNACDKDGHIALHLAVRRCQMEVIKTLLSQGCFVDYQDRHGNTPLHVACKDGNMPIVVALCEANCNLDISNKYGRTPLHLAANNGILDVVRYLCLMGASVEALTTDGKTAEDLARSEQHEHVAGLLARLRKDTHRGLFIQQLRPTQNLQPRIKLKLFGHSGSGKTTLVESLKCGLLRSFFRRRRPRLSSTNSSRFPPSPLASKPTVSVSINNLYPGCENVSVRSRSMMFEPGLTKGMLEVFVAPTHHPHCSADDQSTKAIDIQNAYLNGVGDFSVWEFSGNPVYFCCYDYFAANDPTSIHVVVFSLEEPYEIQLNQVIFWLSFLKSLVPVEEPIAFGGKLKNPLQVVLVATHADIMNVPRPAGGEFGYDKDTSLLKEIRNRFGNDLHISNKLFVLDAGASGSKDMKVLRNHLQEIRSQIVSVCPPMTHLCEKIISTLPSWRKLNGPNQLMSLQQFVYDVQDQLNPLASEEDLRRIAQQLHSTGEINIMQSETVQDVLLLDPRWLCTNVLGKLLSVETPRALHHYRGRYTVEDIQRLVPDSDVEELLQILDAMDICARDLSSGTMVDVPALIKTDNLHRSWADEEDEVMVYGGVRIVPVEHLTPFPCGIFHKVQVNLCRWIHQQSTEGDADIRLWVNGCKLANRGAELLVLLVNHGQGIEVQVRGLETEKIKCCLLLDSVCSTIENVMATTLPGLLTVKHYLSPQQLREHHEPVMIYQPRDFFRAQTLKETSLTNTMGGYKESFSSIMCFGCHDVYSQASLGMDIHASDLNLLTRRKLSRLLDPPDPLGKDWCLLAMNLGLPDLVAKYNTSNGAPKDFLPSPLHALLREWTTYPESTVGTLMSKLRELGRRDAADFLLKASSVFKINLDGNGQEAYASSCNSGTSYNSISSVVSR
Experimental: (§1) Kinase panel assays were performed using the FRET-based Z′-LYTE, Lantha Screen and Adapta enzymatic kinase assay systems (Life Technologies, Carlsbad, Calif.), which were carried out using the SelectScreen Kinase Profiling Service (Life Technologies). The standard reaction contained 2 μM peptide substrate, ATP at the optimal assay concentration, 50 mM HEPES (pH 7.5), 0.01% Brij-35, 10 mM MgCl2, 1 mM EGTA, and the tested kinase. Each kinase was checked for its activity in duplicate data points (n=2) and was assayed following the detailed procedures outlined in the SelectScreen service. Percent inhibition or ATP displacement (For Lantha screen) represent a ratio of phosphorylated/ATP bound product formed in the presence of the compound compared with phosphorylated/ATP bound product formed in reactions containing 1% DMSO.
(§2) Kinome technique was used for monitoring phosphorylation events and phosphorylation targets of 0260-Fer interaction, using peptide arrays for human targets and phosphorylation-specific antibodies. Construction of peptide arrays relied on information from phosphorylation databases. The following proteins were determined as significant above the threshold of 40% kinase activity inhibition or ATP displacement to the Kinase domain site.

CC cells [2] = test: Glycolysis rate (secreted lactate) in CC cells; assay type: cell-based, human; details: 12 h
Experimental: Cells were grown in MEM containing 1 gr/lit glucose or in DMEM with 4.5 gr/lit glucose. Secreted lactate levels were determined using Lactate Colorimetric Assay Kit II according to the manufacturer's protocol (Biovision, USA).

[3] = tested on: AMPK-mTOR signaling pathway; test: WB of AMPK-mTOR signaling pathway phosphorylation in CC cells; assay type: cell-based, human
Experimental: (§3) WB analyses were carried out as previously described before. In brief, cells were lysed in RIPA buffer mixed with protease inhibitors and separated on SDS-PAGE gel, transferred to PVDF membrane treated with 5% skim milk to exclude non-specific background and incubated with a primary antibody over-night. The membrane was incubated for 1 h with a secondary antibody conjugated to Horseradish Peroxidase (HRP). The protein-antibody complex was visualized using the SuperSignal West Pico Chemiluminescent Substrate (Thermo scientific, USA).

[4] = tested on: su.86.86 (pancreatic cancer cells derived from metastatic site-liver); test: Cytotoxicity dose response in su.86.86 cells; assay type: cell-based, human; details: 24 h, 48 h, 72 h
Experimental: (§4) Cell lines (HCT116, ht29, Rko, Hep3B, SW48, SW620, MDA-MB-231, PANC-1, su.86.86, Hfb) were obtained from the American Type Culture Collection (ATCC). Cell type authentication was carried out by microscope and DNA profiles using short tandem repeat analysis. Cells were grown in Minimum Essential Medium (MEM) containing 10% heat-inactivated Fetal Bovine Serum (FBS) or in Dulbecco's Modified Eagle's Medium (DMEM) containing 10% FBS, where specified, at 37° C. with 5% CO2. In general, the in-vitro experiments were carried out with 2. μM 0260 added into the growth medium. Dose response experiments included increasing 0260 concentrations. Cell death levels were determined using the MultiTox-Fluor Multiplex Cytotoxicity Assay (G9201, Promega, USA). In brief, 10,000 cells were seeded in black bottom 96 wells plate and were allowed to attach to the plate bottom for 16 h before the administration of various 0260 concentration in each well. Cell death levels were determined according to the manufacturer's protocol.
(§5) Cells death level was determined using the MultiTox-Fluor Multiplex Cytotoxicity Assay (G9201, Promega, USA) according to the manufacturer's protocol.

MINK1 = MINK1 (Homo sapiens, UniProt Q8N4C8); test: Kinase panel assay, MINK1; assay type: biochemical; details: above threshold
Chain of MINK1 (Q8N4C8 1-320 limits assumed): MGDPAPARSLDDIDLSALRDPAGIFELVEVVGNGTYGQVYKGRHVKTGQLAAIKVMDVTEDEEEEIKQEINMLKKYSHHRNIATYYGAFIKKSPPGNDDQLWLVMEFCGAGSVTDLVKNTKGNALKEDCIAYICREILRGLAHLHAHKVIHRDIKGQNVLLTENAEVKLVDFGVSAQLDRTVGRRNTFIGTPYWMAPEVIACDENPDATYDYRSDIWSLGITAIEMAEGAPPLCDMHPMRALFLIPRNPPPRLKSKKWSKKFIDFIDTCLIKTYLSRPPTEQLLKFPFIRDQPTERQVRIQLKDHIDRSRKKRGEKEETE
Experimental: as §1, §2

CC cells [5] = test: Apoptotic markers in treated CC cells (WB, ICC); assay type: cell-based, human
Experimental: as §3
Cells were fixed with 4% paraformaldehyde (30 min) and incubated with Permeabilization Solution containing 0.1% Triton X-100 (Sigma-Aldrich, Israel) in PBS at room temperature for 1 h. Nonspecific binding was blocked with PBS containing 10% fetal bovine serum for 1 h at room temperature. Cells were incubated with specific antibodies diluted 1:100 overnight at 4° C. […] Bound primary antibodies were detected by Alexa Fluor® 488 goat anti-mouse IgG antibody or Alexa Fluor® 594 goat anti-rabbit IgG antibody (Molecular Probes, Invitrogen, U.K.). […] Nonspecific staining, as determined by binding to the secondary antibody only, was negligible. The immunostained slides were examined under the fluorescence microscope AxioimagerZ1 (Zeiss, Germany) or confocal fluorescence microscope (Olympus-FV1000).

[6] = biological target: CAMK1 (Calcium/calmodulin-dependent protein kinase type 1) (Homo sapiens, UniProt Q14012); test: Kinase panel assay, CAMK1; assay type: biochemical; details: above threshold
Chain of CAMK1 (Calcium/calmodulin-dependent protein kinase type 1) (Q14012 whole entry): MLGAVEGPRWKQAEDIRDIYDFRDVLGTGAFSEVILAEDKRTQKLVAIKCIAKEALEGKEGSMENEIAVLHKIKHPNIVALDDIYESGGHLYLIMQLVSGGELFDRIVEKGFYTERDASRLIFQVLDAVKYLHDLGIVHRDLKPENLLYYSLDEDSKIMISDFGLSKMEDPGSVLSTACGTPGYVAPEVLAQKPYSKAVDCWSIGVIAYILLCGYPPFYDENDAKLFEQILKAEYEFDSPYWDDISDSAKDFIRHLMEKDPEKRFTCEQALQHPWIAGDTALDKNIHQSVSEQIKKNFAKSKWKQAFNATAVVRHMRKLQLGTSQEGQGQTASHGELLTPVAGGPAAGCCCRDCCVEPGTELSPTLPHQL
Experimental: as §1, §2

MDA cells = test: Autophagy in MDA cells (LC3 immuno-staining); assay type: cell-based, human; details: 2 μM
Experimental: Cells were fixed with 4% paraformaldehyde (30 min) and incubated with Permeabilization Solution containing 0.1% Triton X-100 (Sigma-Aldrich, Israel) in PBS at room temperature for 1 h. Nonspecific binding was blocked with PBS containing 10% fetal bovine serum for 1 h at room temperature. Cells were incubated with specific antibodies diluted 1:100 overnight at 4° C. Cells were washed (5 min) in PBS containing 0.2% Tween-20 (Sigma-Aldrich, Israel) to remove non-specific binding. Bound primary antibodies were detected by Alexa Fluor® 488 goat anti-mouse IgG antibody or Alexa Fluor® 594 goat anti-rabbit IgG antibody (Molecular Probes, Invitrogen, U.K.). Nuclei were visualized by incubation with Hoechst 33342 solution for 10 min (1:500). Nonspecific staining, as determined by binding to the secondary antibody only, was negligible. The immunostained slides were examined under the fluorescence microscope AxioimagerZ1 (Zeiss, Germany) or confocal fluorescence microscope (Olympus-FV1000).

MAPK8 (JNK1) = MAPK8 (JNK1) (Homo sapiens, UniProt P45983); test: Kinase panel assay, MAPK8; assay type: biochemical; details: above threshold
Chain of MAPK8 (JNK1) (P45983 whole entry): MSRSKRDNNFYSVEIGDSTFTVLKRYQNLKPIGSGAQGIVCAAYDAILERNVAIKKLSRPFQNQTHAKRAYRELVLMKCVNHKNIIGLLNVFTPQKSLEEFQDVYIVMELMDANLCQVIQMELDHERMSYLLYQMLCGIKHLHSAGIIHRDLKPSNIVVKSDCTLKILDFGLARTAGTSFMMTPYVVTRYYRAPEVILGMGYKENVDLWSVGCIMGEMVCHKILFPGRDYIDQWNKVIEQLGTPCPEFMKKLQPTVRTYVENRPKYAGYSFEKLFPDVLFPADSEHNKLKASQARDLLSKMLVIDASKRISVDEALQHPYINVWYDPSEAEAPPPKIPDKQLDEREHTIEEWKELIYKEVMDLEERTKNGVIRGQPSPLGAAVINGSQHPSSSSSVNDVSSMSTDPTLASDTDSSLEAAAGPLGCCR
Experimental: as §1, §2

[7] = tested on: normal human fibroblasts (Hfb); test: MultiTox-Fluor cytotoxicity assay in normal human fibroblasts; assay type: cell-based
Experimental: as §4, §5

[8] = Pharmacokinetic study in mice; assay type: in vivo; details: IP
Experimental: The investigation of PK properties of 0260 was carried out using 30 ICR/CD-1 mice. Intraperitoneal (IP) administration was used, and the solution was administered as 10 ml per 1 kg of animal body weight. At 5, 15, 30, 60, 120, and 240 min after administration (5 mice per each time point) mice were decapitated and blood samples were taken in EDTA-containing tubes. Plasma was prepared from the collected blood by centrifugation and then forwarded for LC-MS/MS analysis. A high sensitivity analytical method was developed for detection of 0260. Analysis was performed in the Agilent 1100 HPLC system including degasser, the binary pump, autosampler, and absorption detector with variable wavelength ranging between 190-600 nm. The HPLC system was coupled with the tandem mass spectrometer API 2000 (Applied Biosystems). The TurboIonSpray ion source was used in the positive ion mode. Data acquisition was performed with Analyst 1.3.1 software.

Q: Which results are given for `CC(C)c1ccc(-c2cn3nc(N4CCC(CN5CCN(C)CC5)CC4)sc3n2)cc1` [compound 0260, tartarate salt of 6-(4-isopropyl-phenyl)-2-{4-[(4-methyl-piperazin-1-yl)methyl]piperidin-1-yl}-imidazo [2,1-b][1,3,4]thiadiazole]?
A: kinase activity inhibition or ATP displacement [1]: > 40%; additional acceleration of glycolytic rate (CC cells [2]; high glucose concentration): 30%; elevation in the glycolytic rate (CC cells [2]; high glucose concentration, total): 65%; acceleration of glycolytic rate (CC cells [2]; low glucose): 35%; AMPK phosphorylation [3]: phosphorylated and activated; Akt phosphorylation [3]: decrease in the activating phosphorylation; Raptor phosphorylation on serines 792 and 722 [3]: inhibitory phosphorylation; mTOR phosphorylation state [3]: not changed; sensitivity of Su.86.86 relative to PANC-1 cells [4]: more sensitive; kinase activity inhibition or ATP displacement (MINK1): > 40%; apoptotic markers (cleaved caspase 3, cleaved PARP-1, AIF translocation) (CC cells [5]): not observed; kinase activity inhibition or ATP displacement [6]: > 40%; autophagy (LC3 immuno-staining) (MDA cells): induction of autophagy was also observed; kinase activity inhibition or ATP displacement (MAPK8 (JNK1)): > 40%; cell death / cytotoxic effect in normal fibroblasts ([7]; 24 h and 48 h, same conditions as SW620): no death was seen; also recorded: Almost no cytotoxic effect; sensitivity of normal cells lower than SW620 ([7]; Hfb 72 h vs SW620): 50 fold; pEC50 ([7]; Homo sapiens, Fibroblast, Hfb, 0-20 μM, 72 h): 4.70; half-life ([8]; ICR/CD-1, mouse, plasma, read-out: T1/2 in the blood): 2.92 h; volume of distribution [8]: 4.244 L/kg
